Test results published in patent publication US20220273683A1, “BORON-CONTAINING SMALL MOLECULES” (Bill & Melinda Gates Foundation, priority 2016, published 2022).
pEC50: −log10 of the molar value. Converted amounts (≈) assume the structure as drawn.

Assays:
Assay type in all cases: cell-based
[1] = system: Wolbachia pipientis in C6/36 cell line; test: Anti-Wolbachia high-content assay; details: C6/36 (wAlbB) cells, 7 days at 26° C., 50% reduction of Wolbachia
From the text: C6/36 cells (ECACC #89051705, derived from Aedes albopictus larvae) were infected with Wolbachia pipientis derived from the supernatant of cultured A. albopictus Aa23 cells to create a stably Wolbachia-infected cell line C6/36 (wAlbB). This cell line was subpassaged 6-8 days prior to plating out at a density of 2000 viable cells per well in a 384-well CellCarrier plate suspended in Liebovitz media supplemented with 20% fetal bovine serum, 2% tryptose phosphate broth and 1% non-essential amino acids. Compounds were dissolved and diluted in DMSO, and compound solution was added to each well to provide a final DMSO concentration <1% and a total volume of 100 μL per well. Following 7 days of sterile incubation at 26° C., staining media containing SYTO 11 DNA dye was added to each well. After 15 minutes, all media was removed from each well and fresh media (no stain) was added. Imaging of each well was accomplished using a Perkin Elmer Operetta high-content imaging system. Five fields per well were imaged using a confocal 60× objective with the Fluorescein filter (excitation filter: 460-490 nm; emission filter: 500-550 nm). Images were analyzed using the Perkin Elmer Harmony software to score each intact cell on the basis of texture complexity of the cytoplasm. Full details can be found in: […]. Biomol. Screening, 2015, 20, […]. Compound sample wells were analyzed and normalized (along with the positive controls) against the vehicle (untreated) control to give a percentage reduction of Wolbachia-infected cells. Using the cell number analysis, compounds with a host cell number amounting to less than 50% of the vehicle control were classified as toxic and retested at a reduced compound concentration. Dose-response curves were generated with percentage reduction of Wolbachia-infected cells versus compound concentration, using 5-10 compound serial dilutions. Data were analyzed and compound EC50 is determined using a 4 parameter logistic nonlinear regression model.

[2] = system: Streptococcus pneumoniae (ATCC 49619); test: Antibacterial MIC assay (microbroth dilution, CLSI); details: 35° C., 16-20 hours; for MIC Streptococcus pneumoniae (ATCC 49619): 3% lysed horse blood; for MIC: Streptococcus pneumoniae, ATCC49619, 3% lysed horse blood
Method in brief: (§1)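 Microbroth dilution per CLSI M07-A10/M100-S25 in cation-adjusted Mueller-Hinton broth, with 3% lysed horse blood added for S. pneumoniae. Inoculum from a 0.5 McFarland direct colony suspension, diluted to 5×10^5 CFU/mL in the well. Compounds were 2-fold serially diluted; MIC read against a growth control.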

[3] = system: Staphylococcus aureus, MRSA (ATCC 33591); test: as above; details: 35° C., 16-20 hours; for MIC: Staphylococcus aureus
Method in brief: as §1

Compound | pEC50 [1] | MIC Streptococcus pneumoniae (ATCC 49619) [2] | MIC Staphylococcus aureus, MRSA (ATCC 33591) [3] | pEC50 ([1]; Wolbachia pipientis) | MIC [2] [µg/mL] | MIC [3] [µg/mL]
CCCCNC(=O)CC[C@]1(C)C[C@@H](OC(=O)COc2ccc3c(c2F)B(O)OC3)[C@]2(C)[C@H](C)CC[C@]3(CCC(=O)[C@H]32)[C@@H](C)[C@@H]1O [Compound 5, (3aR,4R,5R,7R,8S,9R,9aS,12R)-7-(3-(butylamino)-3-oxopropyl)-8-hydroxy-4,7,9,12-tetramethyl-3-oxodecahydro-4,9a-propanocyclopenta[8]annulen-5-yl2-((7-fluoro-1-hydroxy-1,3-dihydrobenzo[c][1,2]oxaborol-6-yl)oxy)acetate] | 6.52 | B (0.5-2 is B) | B (0.5-2 is B) |  |  | 
COC(=O)/C=C/[C@]1(C)C[C@@H](OC(=O)COc2ccc3c(c2F)B(O)OC3)[C@]2(C)[C@H](C)CC[C@]3(CCC(=O)[C@H]32)[C@@H](C)[C@@H]1O [Compound 12, methyl (E)-3-((3aR,4R,5R,7S,8S,9R,9aS,12R)-5-(2-((7-fluoro-1-hydroxy-1,3-dihydrobenzo[c][1,2]oxaborol-6-yl)oxy)acetoxy)-8-hydroxy-4,7,9,12-tetramethyl-3-oxodecahydro-4,9a-propanocyclopenta[8]annulen-7-yl)acrylate] |  |  |  | 7.09 | < 0.25 | < 0.25
C[C@@H]1CC[C@@]23CCC(=O)[C@H]2[C@]1(C)[C@H](OC(=O)COc1ccc2c(c1F)B(O)OC2)C[C@@](C)(/C=C/C(=O)O)[C@@H](O)C3 [Compound 13, (E)-3-((3aR,4R,5R,7S,8S,9aS,12R)-5-(2-((7-fluoro-1-hydroxy-1,3-dihydrobenzo[c][1,2]oxaborol-6-yl)oxy)acetoxy)-8-hydroxy-4,7,12-trimethyl-3-oxodecahydro-4,9a-propanocyclopenta[8]annulen-7-yl)acrylic acid] |  |  |  | < 6.00 | > 64 | 4 to 32 (≈ 7.16 to 57.3 µM)
CC[C@]1(C)C[C@@H](OC(=O)COc2cc(CN)c3c(c2)B(O)OC3)[C@]2(C)[C@H](C)CC[C@]3(CCC(=O)[C@H]32)[C@@H](C)[C@@H]1O [Compound 20, (3aR,4R,5R,7R,8S,9R,9aS,12R)-7-ethyl-8-hydroxy-4,7,9,12-tetramethyl-3-oxodecahydro-4,9a-propanocyclopenta[8]annulen-5-yl2-((4-(aminomethyl)-1-hydroxy-1,3-dihydrobenzo[c][1,2]oxaborol-6-yl)oxy)acetate] | 7.00 | B (0.5-2 is B) | A (MIC of ≤0.25 is A) |  |  | 

Second part, led by results:

pEC50 [1] | MIC Streptococcus pneumoniae (ATCC 49619) [2] | MIC Staphylococcus aureus, MRSA (ATCC 33591) [3] | Compound | pEC50 ([1]; Wolbachia pipientis) | MIC [2] [µg/mL] | MIC [3] [µg/mL]
6.55 | B (0.5-2 is B) | B (0.5-2 is B) | CCNC(=O)CC[C@]1(C)C[C@@H](OC(=O)COc2ccc3c(c2F)B(O)OC3)[C@]2(C)[C@H](C)CC[C@]3(CCC(=O)[C@H]32)[C@@H](C)[C@@H]1O [Compound 4, (3aR,4R,5R,7R,8S,9R,9aS,12R)-7-(3-(ethylamino)-3-oxopropyl)-8-hydroxy-4,7,9,12-tetramethyl-3-oxodecahydro-4,9a-propanocyclopenta[8]annulen-5-yl2-((7-fluoro-1-hydroxy-1,3-dihydrobenzo[c][1,2]oxaborol-6-yl)oxy)acetate] |  |  | 
6.41 | B (0.5-2 is B) | B (0.5-2 is B) | C[C@@H]1CC[C@@]23CCC(=O)[C@H]2[C@]1(C)[C@H](OC(=O)COc1ccc2c(c1F)B(O)OC2)C[C@@](C)(CCC(=O)NC1CC1)[C@@H](O)[C@@H]3C [Compound 6, (3aR,4R,5R,7R,8S,9R,9aS,12R)-7-(3-(cyclopropylamino)-3-oxopropyl)-8-hydroxy-4,7,9,12-tetramethyl-3-oxodecahydro-4,9a-propanocyclopenta[8]annulen-5-yl2-((7-fluoro-1-hydroxy-1,3-dihydrobenzo[c][1,2]oxaborol-6-yl)oxy)acetate] |  |  | 
< 6.00 | D (≥64 is D) | D (≥64 is D) | CNC[C@H](O)[C@]1(C)C[C@@H](OC(=O)COc2ccc3c(c2F)B(O)OC3)[C@]2(C)[C@H](C)CC[C@]3(CCC(=O)[C@H]32)[C@@H](C)[C@@H]1O [Compound 28, (3aR,4R,5R,7R,8S,9R,9aS,12R)-8-hydroxy-7-((R)-1-hydroxy-2-(methylamino)ethyl)-4,7,9,12-tetramethyl-3-oxodecahydro-4,9a-propanocyclopenta[8]annulen-5-yl2-((7-fluoro-1-hydroxy-1,3-dihydrobenzo[c][1,2]oxaborol-6-yl)oxy)acetate] |  |  | 
< 6.00 | D (≥64 is D) | C (4-32 is C) | C[C@@H]1CC[C@@]23CCC(=O)[C@H]2[C@]1(C)[C@H](OC(=O)COc1ccc2c(c1F)B(O)OC2)C[C@@](C)(CNS(C)(=O)=O)[C@@H](OS(C)(=O)=O)[C@@H]3C [Compound 49, (3aR,4R,5R,7S,8S,9R,9aS,12R)-4,7,9,12-tetramethyl-7-(methylsulfonamidomethyl)-8-((methylsulfonyl)oxy)-3-oxodecahydro-4,9a-propanocyclopenta[8]annulen-5-yl2-((7-fluoro-1-hydroxy-1,3-dihydrobenzo[c][1,2]oxaborol-6-yl)oxy)acetate] |  |  | 
